Experimental data as given in BindingDB's records for doi:10.1021/jm020093q (Brown University, 2002).

test: Concentration required for 50% Inhibition of activity against Yersinia Protein-tyrosine phosphatase

Compared with `O=C(O)C(=O)c1ccc(O)cc1` [(4-Hydroxy-phenyl)-oxo-acetic acid], `O=C(O)C(=O)c1ccc(OCc2ccccc2COc2ccc(C(=O)C(=O)O)cc2)cc1` [{4-[2-(4-Oxalyl-phenoxymethyl)-benzyloxy]-phenyl}-oxo-acetic acid] is 24-fold lower in IC50: 200 µM for the first, 8.5 µM for the second. The second is the more potent here.

Going from `O=C(O)C(=O)c1ccc(OCc2cc(COc3ccc(C(=O)C(=O)O)cc3)cc(COc3ccc(C(=O)C(=O)O)cc3)c2)cc1` [{4-[3,5-Bis-(4-oxalyl-phenoxymethyl)-benzyloxy]-phenyl}-oxo-acetic acid] to `O=C(O)C(=O)c1ccc(OCc2cccc(COc3ccc(C(=O)C(=O)O)cc3)c2)cc1` [{4-[3-(4-Oxalyl-phenoxymethyl)-benzyloxy]-phenyl}-oxo-acetic acid], the IC50 rises from 1.7 µM to 4.1 µM (2.4-fold).

In the case of `O=C(O)C(=O)c1ccc(OCc2ccc(COc3ccc(C(=O)C(=O)O)cc3)cc2)cc1` [{4-[4-(4-Oxalyl-phenoxymethyl)-benzyloxy]-phenyl}-oxo-acetic acid], the IC50 is reported as 0.7 µM.
